Data reported in patent US20040209246A1, “Dual reporter/dye reduction methodology for evaluating antiviral and cytotoxicity of hepatitis C virus inhibitors” (Agouron Pharmaceuticals, Inc., priority 2003, published 2004).
Where “and” joins values, the source holds several entries; their conditions need not be identical. Equal entries are not always repeated. Where two headings read alike, the source gives them in different places.

Experiments:
[1] = test system: reporter-selectable HCV replicon BB7M4hRLuc in BB7 M4 hRLuc#10 Huh-7 cells; assay: HCV replicon hRLuc reporter antiviral assay, cell line #10; type: cell-based, Hepatitis C virus; conditions: cell line #10, hRLuc endpoint, three days incubation
Procedure: (§1) An HCV replicon reporter assay system can be developed to determine the specific antiviral activity of inhibitors in standard dose response assays. In such assays, the reporter-selectable containing Huh-7 cells are incubated in 96 wells containing serial dilutions of test inhibitors or no inhibitor. At a specified time after incubation, the activities of the viral-encoded reporter genes are measured in the cell lines using the appropriate reporter assay methodologies. Data from the reporter gene measurements can be expressed as the percent of reporter gene activity in inhibitor-treated cells relative to that of inhibitor-free cells. An analysis of the antiviral component of such data allows for the calculation of the fifty-percent effective concentration (EC50).
In another embodiment of the invention, the dual antiviral activity/cytotoxicity reporter assay system, in conjunction with recording cytotoxicity in the same wells by the dye reduction method, can be used to determine the specific antiviral activity of inhibitors in standard dose response assays using three endpoints. In such assays, target cells containing the reporter-selectable replicon in microtiter are incubated for a desired duration of time at 37° C. and 5% CO2 with plates containing serial dilutions of test inhibitors or no inhibitor. After the incubation period, the activities of the viral and target cell-encoded reporter genes, as well as cytotoxicity by the dye reduction method, are measured using the appropriate dual reporter assay methods subsequent to the measurement of cellular proliferation by dye reduction. Data from the reporter gene and cellular proliferation measurements can be expressed as the percent of reporter gene activity or optical density (OD) reading in inhibitor-treated cells relative to that of inhibitor-free cells. […] The therapeutic index (TI), which is a measurement of the specific antiviral activity of an inhibitor, can then be calculated by dividing the cytotoxicity (CC50) by the antiviral activity (EC50).

[2] = test system: reporter-selectable HCV replicon BB7M4hRLuc in B6b Huh-7 cells; assay: HCV replicon hRLuc reporter antiviral assay, dual reporter cell line B6b; type: cell-based, Hepatitis C virus; conditions: hRLuc endpoint, three days incubation
Procedure: as §1
In another embodiment of the invention, the dual antiviral activity/cytotoxicity reporter assay system, in conjunction with recording cytotoxicity in the same wells by the dye reduction method, can be used to determine the specific antiviral activity of inhibitors in standard dose response assays using three endpoints. In such assays, target cells containing the reporter-selectable replicon in microtiter are incubated for a desired duration of time at 37° C. and 5% CO2 with plates containing serial dilutions of test inhibitors or no inhibitor. After the incubation period, the activities of the viral and target cell-encoded reporter genes, as well as cytotoxicity by the dye reduction method, are measured using the appropriate dual reporter assay methods subsequent to the measurement of cellular proliferation by dye reduction. Data from the reporter gene and cellular proliferation measurements can be expressed as the percent of reporter gene activity or optical density (OD) reading in inhibitor-treated cells relative to that of inhibitor-free cells. An analysis of the antiviral component of such data allows for the calculation of the fifty-percent effective concentration (EC50) or ninety-percent effective concentration […] of an inhibitor. In addition, an analysis of the cytotoxicity component of the data can be used to calculate the 50% cytotoxicity concentration (CC50) of an inhibitor. The therapeutic index (TI), which is a measurement of the specific antiviral activity of an inhibitor, can then be calculated by dividing the cytotoxicity (CC50) by the antiviral activity (EC50).

[3] = test system: B6b dual reporter replicon cell line (Huh-7); assay: XTT dye reduction cytotoxicity, cell line B6b; conditions: read-out: CC50 (XTT), three days incubation
Description: (§2) In the current invention, two end points will be used to measure CC50 values. The first is XTT dye reduction methodology and the second is the use of the second reporter gene integrated in the nucleus of cells carrying the reporter-selectable HCV replicons. In case of both methodologies, a CC50 value will be generated from the same wells from which an EC50 value was obtained. The CC50 value would be generated by calculating % cytotoxicity of the inhibitor/compound treated wells compared to the no inhibitor/compound well resulting in generation of a dose dependent curve to obtain the value that was responsible for the death of 50% of the cells.
(§3) Cell line BB7 M4 hRLuc#10 was grown in DMEM without phenol red (catalog # 1053-028) at 10% FBS with 4 mM L-glutamine, 1×Pen-step, 1×non-essential amino acids, and 200 μg/ml G418 (all from Gibco BRL/Invitrogen). Line B6b was grown in the same media with the addition of 6 μg/ml Blasticidin (ICN Biomedicals). Experiments in these replicon lines were carried out in 96-well black wall, clear-bottom plates (Costar®; Corning Incorporated). Cells were seeded as diagrammed in the figure below at a density of 2×10^4/well in 100 μl DMEM (described above) without G418 or Blasticidin. […]
(§4) Cell line BB7 M4 hRLuc #10 contained the selectable reporter replicon BB7 M4-hRLuc, which served as an anti-viral marker, but cytotoxicity had to be measured by XTT. […]

[4] = test system: BB7 M4 hRLuc#10 replicon cell line (Huh-7); assay: XTT dye reduction cytotoxicity, cell line #10; conditions: read-out: CC50 (XTT); cell line #10, XTT dye reduction, three days incubation
Description: as §2, §3, §4

[5] = test system: B6b dual reporter replicon cell line (Huh-7); conditions: read-out: CC50 (FLuc), three days incubation
Description: as §2, §3, §4

Molecule	EC50 [1]	EC50 [2]	EC90 [2]	EC90 [1]	EC50 ([1]; read-out: EC50)	CC50 [3]	CC50 [4]	EC50 ([2]; read-out: EC50)	EC90 ([2]; read-out: EC90)	CC50 [5]
interferon alpha [IFN]	0.38 IU/ml and 0.67 IU/ml	0.39 IU/ml and 0.43 IU/ml	2.1 IU/ml and 2.6 IU/ml	–	–	–	–	–	–	–
OC[C@H]1O[C@@H](n2cnc3cc(Cl)c(Cl)cc32)[C@H](O)[C@@H]1O [DRB, 5,6-dichlorobenzimidazole riboside]	–	–	–	50.2 µM and 58 µM	21.5 µM and 33.2 µM	48.7 µM and 40.4 µM	53.6 µM and 48.7 µM	34.1 µM and 53.7 µM	43.5 µM and 55 µM	85.1 µM and 60.7 µM
